Data taken from US6313104A, “Organoprotective solutions” (Abbott Laboratories, priority 1999, dated 2001).
Entries after “also recorded” stand apart in the source; their conditions may differ.

How the values were obtained:
ICAM-1 [1] = test: IFN-γ-induced ICAM-1 expression on PTEC, flow cytometry; type: cell-based
Procedure: (§1) Proximal tubular epithelial cells were cultured according to the methods described by Detrisac et al. (25). In short: PTEC were grown on tissue culture flasks that had been coated with collagen I (Sigma St. Louis Mo.) and Foetel Calf Serum (FCS, from Gibco BRL). The culture medium consisted of Dulbeco's eagle's medium and Ham's medium (both from Gibco BRL) in a 1:1 ratio, supplemented with insulin ([…]), transferrin (5 μg/ml), selenium (5 ng/ml), hydrocortisone (36 ng/ml), triiodothyronine (4 pg/ml) epidermal growth factor (10 ng/ml), and penicillin/streptomycin (5 IE/ml, 5 μg/ml) (all from Sigma). The cell lines were acquired from multiple sources including biopsy tissue pretransplant, allografts unsuitable for transplantation and from grossly normal surgical nephrectomy specimens. Experiments were performed using cells from passages one to four. PTEC were characterized by positive staining for the epithelial membrane antigen (EMA, Dako Glostrup Denmark) and the adenosinedeaminase binding protein (kindly provided by Dr. Dinjens, University Hospital Maastricht, the Netherlands).
(§2) Confluent monolayers of PTEC or HUVEC were trypsinized and seeded in 24-well plates. Upon confluency the cells were stimulated with IFN-γ (Sigma, St. Louis Mo.) for […] in the presence or absence various concentrations of heparinoids in various Heparin (Heparin-Braun®) was purchased from Braun Melsungen (Melsungen, Germany), low molecular weight heparin (Fragmin® P) from Pfrimmer Kabi (Erlangen, Germany), and modified low molecular weight heparins (Knoll AG Ludwigshafen, Germany).
(§3) In some experiments the culture medium was supplemented with sodium chlorate in order to inhibit sulfation of cellbound HSPG. Chlorate was used in concentrations between 50 to 150 mM for 24 hours before addition of IFN-γ and was present during the stimulation period. Sodium chloride was used as osmolarity control. Cultured cells were recovered by brief treatment with trypsin-EDTA for flow cytometry analysis.
(§4) Cells were pooled, divided into two tubes and washed. Isotype matched irrelevant antibodies conjugated to RPE and FITC (from Dako, Glostrup, Denmark) and Cy-5 (from Dianowa, Hamburg, Germany) were added to the first tube which was used as negative control for the FACS settings. Cells from the second tube were labelled with antibodies against MHC class I (RPE-conjugated, W6, 32, Dako), MHC class II (Cy-5-conjugated, CR3/43, Dianova) and ICAM 1 (FITC-conjugated, Dianova) in concentrations according to the instructions of the manufacturer. After incubation for 30 min at 4° C. the cells were washed and analysed by flow cytometry (FACScan, Becton Dickinson); a minimum of 10000 event were analysed. The results are expressed as mean fluorescence intensity (MFI).

MHC class II [2] = test: IFN-γ-induced MHC class II expression on PTEC, flow cytometry; type: cell-based
Procedure: as §1, §2, §3, §4

MHC class I [3] = test: IFN-γ-induced MHC class I expression on PTEC, flow cytometry; type: cell-based
Procedure: as §1, §2, §3, §4

^125 I-IFN-γ = test: Dotblot analysis: binding of 125I-IFN-γ to GAG on nitrocellulose; details: 1 μl of 1 mg/ml on nitrocellulose, 1 hour at 4° C.
Procedure: Small strips of nitrocellulose membranes were prepared and 1 μl of heparin, fragmin and the carious GAGS (all in a concentration of 1 mg/ml) were applied onto the strip. After air drying, the strips were fixed in 1% glutaraldehyde +0.5% cetylpyridinium chloride to prevent GAG loss and washed in Tris buffer. The non-occupied protein binding sites were blocked with 5% BSA in PBS for 30 min at 37° C. The strips were subsequently incubated with ^125 I IFN-γ for 1 hour at 4° C. in the presence or absence of heparin. Hereafter the strips were extensively washed with Tris buffer and exposed to a Kodak film.

MHC class II [4] = test: IFN-γ-induced MHC class II expression on HUVEC, flow cytometry; type: cell-based, Human; details: for induction of MHC class II by IFN-γ: HUVEC, 72 hours
Procedure: (§5) Human umbilical vein endothelial cells were prepared from fresh umbilical cord using the methods described by Jaffe et al (26). Briefly, endothelial cells were isolated from umbilical veins by digestion with collagenase V (Sigma, St. Louis Mo.) for 20 minutes at 37° C. Thereafter the vein was flushes with sterile medium to collect endothelial cells. The culture medium consisted of Medium 199 (Gibco BRL) supplemented with 1% FCS, Endothelial Cell Growth Factor and antibiotics (penicillin-streptomycin). The cells were cultured in 25 cm^2 flasks that had been coated with 1% gelatine (Sigma, St. Louis Mo.).
(§6) All experiments were performed with cells from passage three to six. HUVEC were characterized on the basis of positive staining for factor VIII-related antigen (Dako, High Wycombe, UK) and the endothelial marker EN4 (CD31).
as §2, §4

ICAM-1 [5] = test: IFN-γ-induced ICAM-1 expression on HUVEC, flow cytometry; type: cell-based, Human; details: for upregulation of ICAM-1 by IFN-γ: HUVEC, 72 hours
Procedure: as §5, §6, §2, §4

MHC class I [6] = test: IFN-γ-induced MHC class I expression on HUVEC, flow cytometry; type: cell-based, Human; details: for upregulation of MHC class I by IFN-γ: HUVEC, 72 hours
Procedure: as §5, §6, §2, §4

[7] = 50 ng/ml of IFN-γ, 72 hours, no GAG
[8] = 10 ng/ml IFN-γ, test substance 3 mg/ml
[9] = 100 ng/ml IFN-γ, heparin 0.03 to 3 mg/ml
[10] = PTEC, 10 ng/ml IFN-γ, 72 hours, test substance 0.03 mg/ml
[11] = PTEC, 10 ng/ml IFN-γ, 72 hours, test substance 3 mg/ml
[12] = PTEC, 150 mM NaClO3 from one day before and during stimulation, IFN-γ 0 to 10 ng/ml, 72 hours

“IFN-γ: IFN-γ (Sigma), stimulus for MHC and ICAM-1 expression” was tested, and the “ICAM-1 expression on PTEC” value (ICAM-1 [1]; [7]) was “upregulated”, the “MHC class II expression on PTEC” value (MHC class II [2]; [7]) was “induced” and the “MHC class I expression on PTEC” value (MHC class I [3]; [7]) was “upregulated”.

With heparin the “binding of 125I-IFN-γ with coincubation of a 3000 fold excess of fluidphase heparin” value (^125 I-IFN-γ) was “strongly reduced”, the “binding of 125I-IFN-γ” value (^125 I-IFN-γ; absence of fluidphase heparin) was “can bind” and the “induction of MHC class II by IFN-γ” value (MHC class II [4]; [8]) was “able to inhibit”. The “induction of MHC class II by IFN-γ” value (MHC class II [4]; [9]) was “able to inhibit”, the “MHC class II expression in the absence of IFN-γ” value (MHC class II [4]; unstimulated HUVEC) was “no influence” and the “upregulation of ICAM-1 by IFN-γ” value (ICAM-1 [1]; [10]) was “significantly inhibited”. The “upregulation of ICAM-1 by IFN-γ” value (ICAM-1 [1]; [11]) was “able to inhibit”, the “upregulation of ICAM-1 by IFN-γ” value (ICAM-1 [1]; PTEC, 100 ng/ml IFN-γ) was “able to inhibit” and the “MHC class II expression after IFN-γ stimulation” value (MHC class II [2]; [10]) was “did not significantly inhibit”. For the same molecule, the “induction of MHC class II by IFN-γ” value (MHC class II [2]; [11]) was “able to inhibit”, the “induction of MHC class II by IFN-γ” value (MHC class II [2]; PTEC, 100 ng/ml IFN-γ) was “able to inhibit” and the “upregulation of ICAM-1 by IFN-γ” value (ICAM-1 [5]; [8]) was “able to inhibit”. The “upregulation of ICAM-1 by IFN-γ” value (ICAM-1 [5]; [9]) was “completely abolished”, the “ICAM-1 expression in the absence of IFN-γ” value (ICAM-1 [5]; unstimulated HUVEC) was “no influence” and the “upregulation of MHC class I by IFN-γ” value (MHC class I [6]; [8]) was “able to inhibit”. The “upregulation of MHC class I by IFN-γ” value (MHC class I [6]; [9]) was “completely abolished”, the “MHC class I expression in the absence of IFN-γ” value (MHC class I [6]; unstimulated HUVEC) was “no influence” and the “MHC class I expression after IFN-γ stimulation” value (MHC class I [3]; [10]) was “did not significantly inhibit”. The “upregulation of MHC class I by IFN-γ” value (MHC class I [3]; [11]) was “only a marginal influence; also recorded: able to inhibit” and the “upregulation of MHC class I by IFN-γ” value (MHC class I [3]; PTEC, 100 ng/ml IFN-γ) was “not influenced”.

With `[Na+].[O-][Cl+2]([O-])[O-]` [NaClO3, sodium chlorate] the “modulation of ICAM-1 expression by IFN-γ in comparison to NaCl treated cultures” value (ICAM-1 [1]; [12]) was “significantly reduced”, the “modulation of MHC class II expression by IFN-γ in comparison to NaCl treated cultures” value (MHC class II [2]; [12]) was “significantly reduced” and the “modulation of MHC class I expression by IFN-γ in comparison to NaCl treated cultures” value (MHC class I [3]; [12]) was “significantly reduced”.
